Test results published in ChEMBL document CHEMBL1158027, “Sesquiterpene esters of aristolochic acid from the root and stem of Aristolochia heterophylla” (J Nat Prod, 1999).

Assay: Cytotoxicity against human HepG2(2.2.15) cells
Type: functional, cell-based

Row | Structure (SMILES) | IC50 [µM]
1 | C/C1=C\CC/C(C=O)=C/[C@H](OC(=O)c2cc3c(c4c2c([N+](=O)[O-])cc2ccccc24)OCO3)C/C(C)=C/CC1 | 8.23
2 | C/C1=C\CC/C(C=O)=C\[C@H](OC(=O)c2cc3c(c4c2c([N+](=O)[O-])cc2ccccc24)OCO3)C/C(C)=C/CC1 | 7.53
3 | COc1cccc2c1cc([N+](=O)[O-])c1c(C(=O)O[C@H]3/C=C(/C=O)CC/C=C(\C)CC/C=C(\C)C3)cc3c(c12)OCO3 | 5.44
4 | COc1cccc2c1cc([N+](=O)[O-])c1c(C(=O)O[C@H]3/C=C(\C=O)CC/C=C(\C)CC/C=C(\C)C3)cc3c(c12)OCO3 | 4.83
